Results as given in publication PMC9841298 (Clinical and Translational Science, 2022).
Where two headings read alike, the source gives them in different places.

What was measured:
[1] = PKPlus two-compartmental PK model fitted to reference product plasma data; set-up: species or system human
[2] = ref website drug bank, cited from earlier work
[3] = fasting, two-compartmental model, from reference product 2.0 mg data of ref 13

distribution coefficient from the peripheral to central compartment (k21) [1, 3]: 0.086 h⁻¹
distribution constant from the central to the peripheral compartment (k12) [1, 3]: 0.252 h⁻¹
Vd ([1]; human, plasma, oral, 2 mg): 43.2 L
clearance ([1]; human, plasma, oral, 2 mg): 343 mL/min
Compound: O=C(O)C[C@H](O)C[C@H](O)/C=C/c1c(C2CC2)nc2ccccc2c1-c1ccc(F)cc1 [pitavastatin calcium]
Log P ([2]; model input): 3.75
pKa ([2]; model input): 4.86
Solubility ([2]; pH 4.68): 65.2 µg/mL
Solubility ([2]; water): 3.94 µg/mL
